Results published in article PMC9688530, “Development of Ic-ELISA and Colloidal Gold Lateral Flow Immunoassay for the Determination of Cypermethrin in Agricultural Samples” (Biosensors, 2022).

Tested on: anti-CYP mAb
Experiment: colloidal gold LFIA strip
Assay type: binding, mouse
Set-up: key to T line color intensity: +++: More plus signs (+) mean darker red; ++-: More plus signs (+) mean darker red; +--: More plus signs (+) mean darker red; --- means no color band
Procedure: Colloidal gold particles were synthesized with trisodium citrate as a reducing agent according to our previous work. For the preparation of colloidal gold mAb, 6.65 μg/mL anti-CYP mAbs were added to the colloidal gold solution adjusted to pH 8.2 using 0.2 mol/L K2CO3 with shaking at room temperature for 1 h. BSA (1%) was used to block free colloidal gold particles. After 1 h, the mixture was centrifuged at 12,000 revolutions per minute (RPM) for 15 min to remove free anti-CYP mAbs. The centrifuged deposits were resuspended using one-tenth of the original volume of sodium borate solution (0.01 mol/L) containing 2% BSA and 3% sucrose and preserved at 4 °C.
As depicted in Figure 1A, the LFIA strip was assembled into four components. The center section of a PVC plate was affixed to an NC membrane. The sample pad and absorption pad were stuck on both ends of the PVC plate, and both overlapped with the NC membrane by 1 mm. A total of 2 mg/mL of hapten 5-BSA and 0.5 mg/mL of GAMA were sprayed onto the NC membrane as the test line and control line, respectively, with 5 mm intervals by an automatic dispenser. After drying at 37 °C for 12 h, the fabricated cards were cut into 4 mm wide LFIA strips.
One hundred microliters of the CYP standard solution and 4 μL of the colloidal gold mAb solution were added into a micropore and mixed. After 5 min, an LFIA strip was inserted into the mixture solution. During the mixed solution migration from the sample pad to the absorbent pad, colloidal gold mAb was captured by the T and C lines, resulting in the appearance of color bands within 10 min. When the T line disappeared or the color intensity of the T line was lower than that of the C line, the result was positive (Figure 1B,C). When the color intensity of the T line was not less than that of the C line, the result was negative (Figure 1D).
The sensitivity of the LFIA strip was evaluated by a series of CYP standard solutions (0.7, 0.6, 0.5, 0.4, 0.3, 0.2, 0.1, 0 μg/mL). For qualitative analysis, the sensitivity of the LFIA strip was appraised by the visual LOD (vLOD) and the cut-off value. The vLOD is the lowest concentration of CYP at which the lighter color of the T line is observed compared to the C line. The cut-off value is the minimum CYP concentration at which no color band appears on the T line.
The CRs of the LFIA were calculated with the following equation:CR (%) = (vLOD of CYP/vLOD of analogues) × 100%.

CC1(C)C(C=C(Cl)Cl)C1C(=O)OC(C#N)c1cccc(Oc2ccccc2)c1 (centres unmarked) [CYP, Cypermethrin]
T line color intensity (0.3 µg/mL, Acetone 10 v%): +++ | T line color intensity (0.3 µg/mL, Acetone 20 v%): +++ | T line color intensity (0.3 µg/mL, Acetone 30 v%): ++- | T line color intensity (0.3 µg/mL, Acetone 40 v%): +-- | T line color intensity (0.3 µg/mL, Acetonitrile 10 v%): +++ | T line color intensity (0.3 µg/mL, Acetonitrile 20 v%): ++- | T line color intensity (0.3 µg/mL, Acetonitrile 30 v%): +-- | T line color intensity (0.3 µg/mL, Acetonitrile 40 v%): --- | T line color intensity (0.3 µg/mL, Dimethyl sulfoxide 10 v%): ++- | T line color intensity (0.3 µg/mL, Dimethyl sulfoxide 20 v%): +++ | T line color intensity (0.3 µg/mL, Dimethyl sulfoxide 30 v%): ++- | T line color intensity (0.3 µg/mL, Dimethyl sulfoxide 40 v%): ++- | T line color intensity (0.3 µg/mL, Methanol 10 v%): +++ | T line color intensity (0.3 µg/mL, Methanol 20 v%): +++ | T line color intensity (0.3 µg/mL, Methanol 30 v%): ++- | T line color intensity (0.3 µg/mL, Methanol 40 v%): +-- | T line color intensity (0.3 µg/mL, Na+ 0.07 mol/L): +++ | T line color intensity (0.3 µg/mL, Na+ 0.14 mol/L): +++ | T line color intensity (0.3 µg/mL, Na+ 0.25 mol/L): +++ | T line color intensity (0.3 µg/mL, Na+ 0.5 mol/L): ++- | T line color intensity (0.3 µg/mL, Na+ 1 mol/L): ++- | T line color intensity (0.3 µg/mL, Na+ 2 mol/L): +-- | T line color intensity (0.3 µg/mL, pH 6): +++ | T line color intensity (0.3 µg/mL, pH 7): +++ | T line color intensity (0.3 µg/mL, pH 7.4): +++ | T line color intensity (0.3 µg/mL, pH 8): ++- | T line color intensity (0.3 µg/mL, pH 9): +-- | T line color intensity (0.4 µg/mL, Acetone 10 v%): ++- | T line color intensity (0.4 µg/mL, Acetone 20 v%): +-- | T line color intensity (0.4 µg/mL, Acetone 30 v%): +-- | T line color intensity (0.4 µg/mL, Acetone 40 v%): --- | T line color intensity (0.4 µg/mL, Acetonitrile 10 v%): ++- | T line color intensity (0.4 µg/mL, Acetonitrile 20 v%): +-- | T line color intensity (0.4 µg/mL, Acetonitrile 30 v%): +-- | T line color intensity (0.4 µg/mL, Acetonitrile 40 v%): --- | T line color intensity (0.4 µg/mL, Dimethyl sulfoxide 10 v%): +-- | T line color intensity (0.4 µg/mL, Dimethyl sulfoxide 20 v%): +-- | T line color intensity (0.4 µg/mL, Dimethyl sulfoxide 30 v%): +-- | T line color intensity (0.4 µg/mL, Dimethyl sulfoxide 40 v%): +-- | T line color intensity (0.4 µg/mL, Methanol 10 v%): +-- | T line color intensity (0.4 µg/mL, Methanol 20 v%): +-- | T line color intensity (0.4 µg/mL, Methanol 30 v%): +-- | T line color intensity (0.4 µg/mL, Methanol 40 v%): +-- | T line color intensity (0.4 µg/mL, Na+ 0.07 mol/L): ++- | T line color intensity (0.4 µg/mL, Na+ 0.14 mol/L): ++- | T line color intensity (0.4 µg/mL, Na+ 0.25 mol/L): ++- | T line color intensity (0.4 µg/mL, Na+ 0.5 mol/L): ++- | T line color intensity (0.4 µg/mL, Na+ 1 mol/L): ++- | T line color intensity (0.4 µg/mL, Na+ 2 mol/L): +-- | T line color intensity (0.4 µg/mL, pH 6): ++- | T line color intensity (0.4 µg/mL, pH 7): +-- | T line color intensity (0.4 µg/mL, pH 7.4): ++- | T line color intensity (0.4 µg/mL, pH 8): +-- | T line color intensity (0.4 µg/mL, pH 9): --- | T line color intensity (0.6 µg/mL, Acetone 10 v%): +-- | T line color intensity (0.6 µg/mL, Acetone 20 v%): +-- | T line color intensity (0.6 µg/mL, Acetone 30 v%): --- | T line color intensity (0.6 µg/mL, Acetone 40 v%): --- | T line color intensity (0.6 µg/mL, Acetonitrile 10 v%): +-- | T line color intensity (0.6 µg/mL, Acetonitrile 20 v%): --- | T line color intensity (0.6 µg/mL, Acetonitrile 30 v%): --- | T line color intensity (0.6 µg/mL, Acetonitrile 40 v%): --- | T line color intensity (0.6 µg/mL, Dimethyl sulfoxide 10 v%): --- | T line color intensity (0.6 µg/mL, Dimethyl sulfoxide 20 v%): --- | T line color intensity (0.6 µg/mL, Dimethyl sulfoxide 30 v%): --- | T line color intensity (0.6 µg/mL, Dimethyl sulfoxide 40 v%): --- | T line color intensity (0.6 µg/mL, Methanol 10 v%): --- | T line color intensity (0.6 µg/mL, Methanol 20 v%): +-- | T line color intensity (0.6 µg/mL, Methanol 30 v%): +-- | T line color intensity (0.6 µg/mL, Methanol 40 v%): --- | T line color intensity (0.6 µg/mL, Na+ 0.07 mol/L): --- | T line color intensity (0.6 µg/mL, Na+ 0.14 mol/L): +-- | T line color intensity (0.6 µg/mL, Na+ 0.25 mol/L): +-- | T line color intensity (0.6 µg/mL, Na+ 0.5 mol/L): +-- | T line color intensity (0.6 µg/mL, Na+ 1 mol/L): +-- | T line color intensity (0.6 µg/mL, Na+ 2 mol/L): --- | T line color intensity (0.6 µg/mL, pH 6): --- | T line color intensity (0.6 µg/mL, pH 7): --- | T line color intensity (0.6 µg/mL, pH 7.4): --- | T line color intensity (0.6 µg/mL, pH 8): --- | T line color intensity (0.6 µg/mL, pH 9): --- | cut-off value (optimal buffer): 0.6 µg/mL | visual limit of detection (vLOD) (optimal buffer): 0.3 µg/mL
